Laboratory results taken from patent US20230143604A1, “QW DOSING OF GIP RECEPTOR AGONIST PEPTIDE COMPOUNDS AND USES THEREOF” (TAKEDA PHARMACEUTICAL COMPANY LIMITED, priority 2020, published 2023).
Starred links: 1 amine or outer side, 2 acyl side, 3 side chain; linkers in the order of their positions; H or OH if unused. Non-standard residues stand in square brackets, D forms with d. Residues, ends and D or L forms follow the SMILES beside them. Groups on a side chain read outwards from the residue. *: point of attachment. C20 diacid = O=C(O)CCCCCCCCCCCCCCCCCCC(=O)*; C18 diacid = O=C(O)CCCCCCCCCCCCCCCCC(=O)*; C17 diacid = O=C(O)CCCCCCCCCCCCCCCC(=O)*; γGlu = O=C(O)[C@H](CCC(=O)[*:2])N[*:1]; NMeY = CN[C@@H](Cc1ccc(O)cc1)C(=O)O; AEEA = NCCOCCOCC(=O)O; Aib = CC(C)(N)C(=O)O

Columns and labels:
[1] = Human plasma protein binding (PPB); format: in vitro ADME; conditions: for free unbound peptide in human plasma (in words): judged for once per week (QW) dosing
Experimental: Stock solutions: (1000 μM) of the peptides are prepared in DMSO.
Human plasma (mixed gender; containing K2-EDTA as anti-coagulant; pre-adjusted to pH 7.4—NB alternative species may be used) is spiked individually with each test peptide (1000 nmol/L), sampled for analysis and then incubated (n=4) at 37° C. in a water bath for 30 minutes. Following the incubation period, the plasma is sampled for analysis, then transferred to ultracentrifugation tubes and centrifuged (n=3) at […] and 4° C. for 3 hours, after which the supernatant is sampled for analysis. An additional aliquot of the supernatant is taken at the end of the centrifugation period to determine the total protein concentration. An aliquot of the incubated plasma will be stored at 4° C. for 3 hours and then sampled for analysis. At the point of sampling, all samples are matrix-matched, treated with ice-cold acetonitrile/methanol (4:1 (vfv)) containing internal standard, centrifuged al 2000 g and 4° C. for 10 minutes and stored prior to LC-MS/MS analysis. An appropriate positive control compound control will be incubated and centrifuged in parallel; control plasma is also centrifuged to generate samples for matrix-matching. Fraction unbound in plasma (Fuplasma) values is determined by comparison of the analyte response in plasma to the analyte response in the supernatant, determined via peak area response ratios.
The samples are analyzed by LC-MS/MS using a 6500 (or equivalent) triple quadrupole mass spectrometer (AB Sciex) coupled to an appropriate Liquid Chromatography (LC) system. Protein binding and stability values are determined via peak area ratios using multiple reaction monitoring (MRM) parameters following compound optimisation. Multiple reaction monitoring (MRM) is a highly sensitive method of targeted mass spectrometry (MS) that can be used to selectively detect and quantify peptides based on the screening of specified precursor peptide-to-fragment ion transitions.

[2] = Dog plasma protein binding (PPB); format: in vitro ADME; conditions: pH 7.4; fraction unbound; dog serum; read-out: Dog PPB (FUplasma)
Description: Dog PPB values presented below are obtained essentially as described for Human PPB samples, with the difference being that dog serum is used instead of human serum. Table 10 is provided with the values of (Fu,plasma) as fraction unbound expressed as a percentage compared to the percent bound. i.e. if the value is 0.0123, then the fraction unbound is […], which is 1.23% of the peptide is unbound and 98.77% is bound in plasma. Methods and analysis for performing the dog PPB protocol and results are the same as noted herein as for the Human PPB protocol and analysis.

[3] = Solubility in phosphate buffer pH 7.4
Outline: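 3 mg of peptide treated with 100 μL portions of 200 mM phosphate buffer pH 7.4, sonicating/vortexing up to 1 min, with further buffer added until fully dissolved. Solubility then quantified by HPLC.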

[4] = both sexes, pH 7.4, fraction unbound, human plasma, 1000 nmol/L peptide, ultracentrifugation, read-out: Human PPB (FUplasma)

SMILES	fraction unbound at 30 min, 1000 nmol/L [1, 4]	free unbound peptide in human plasma (in words) [1]	fraction unbound at 30 min, 1000 nmol/L [2]	solubility ([3]; pH 7.4, aqueous buffer, pH 7.4 Phosphate Buffer - Solubility, 200 mM Phosphate buffer pH 7.4) [mg/mL]	solubility ([3]; pH 7.4, solubility in phosphate buffer at pH 7.4, 200 mM phosphate buffer pH 7.4) [mg/mL]	fraction unbound [1, 4]	fraction unbound [2]	solubility ([3]; pH 7.4) [mg/mL]	solubility ([3]; pH 7.4, aqueous buffer) [mg/mL]
CC[C@H](C)[C@H](NC(=O)[C@H](CO)NC(=O)[C@H](Cc1ccc(O)cc1)NC(=O)[C@H](CC(=O)O)NC(=O)[C@H](CO)NC(=O)[C@@H](NC(=O)[C@H](Cc1ccccc1)NC(=O)[C@@H](NC(=O)CNC(=O)[C@H](CCC(=O)O)NC(=O)C(C)(C)NC(=O)[C@H](Cc1ccc(O)cc1)NC)[C@@H](C)O)[C@@H](C)CC)C(=O)N[C@@H](C)C(=O)N[C@@H](CC(C)C)C(=O)N[C@@H](CC(=O)O)C(=O)N[C@@H](CCCNC(=N)N)C(=O)NC(C)(C)C(=O)N[C@@H](CCCCNC(=O)COCCOCCNC(=O)COCCOCCNC(=O)CC[C@H](NC(=O)CC[C@H](NC(=O)CCCCCCCCCCCCCCCC(=O)O)C(=O)O)C(=O)O)C(=O)N[C@@H](CCC(N)=O)C(=O)NC(C)(C)C(=O)N[C@@H](CC(N)=O)C(=O)N[C@@H](Cc1ccccc1)C(=O)N[C@H](C(=O)N[C@@H](CC(N)=O)C(=O)N[C@@H](Cc1c[nH]c2ccccc12)C(=O)N[C@@H](CC(C)C)C(=O)N[C@@H](CC(C)C)C(=O)N[C@@H](C)C(=O)N[C@@H](CCC(N)=O)C(=O)N[C@@H](CO)C(=O)N1CCC[C@H]1C(=O)N[C@@H](CO)C(=O)N[C@@H](CO)C(=O)NCC(=O)N[C@@H](C)C(=O)N1CCC[C@H]1C(=O)N1CCC[C@H]1C(=O)N1CCC[C@H]1C(=O)N[C@@H](CO)C(N)=O)C(C)C [Compound 11] (H-[NMeY][Aib]EGTFISDYSIALDR[Aib]K([AEEA-AEEA-γGlu-γGlu-C17 diacid])Q[Aib]NFVNWLLAQSPSSGAPPPS-NH2)	0.0038	optimum free unbound peptide	≤ 0.0024	≥ 30	≥ 15	–	–	–	–
CC[C@H](C)[C@H](NC(=O)[C@H](CO)NC(=O)[C@H](Cc1ccc(O)cc1)NC(=O)[C@H](CC(=O)O)NC(=O)[C@H](CO)NC(=O)[C@@H](NC(=O)[C@H](Cc1ccccc1)NC(=O)[C@@H](NC(=O)CNC(=O)[C@H](CCC(=O)O)NC(=O)C(C)(C)NC(=O)[C@H](Cc1ccc(O)cc1)NC)[C@@H](C)O)[C@@H](C)CC)C(=O)N[C@@H](C)C(=O)N[C@@H](CC(C)C)C(=O)N[C@@H](CC(=O)O)C(=O)N[C@@H](CCCNC(=N)N)C(=O)NC(C)(C)C(=O)N[C@@H](Cc1c[nH]cn1)C(=O)N[C@@H](CCC(N)=O)C(=O)NC(C)(C)C(=O)N[C@@H](CC(N)=O)C(=O)N[C@@H](Cc1ccccc1)C(=O)N[C@H](C(=O)N[C@@H](CC(N)=O)C(=O)N[C@@H](Cc1c[nH]c2ccccc12)C(=O)N[C@@H](CC(C)C)C(=O)N[C@@H](CC(C)C)C(=O)N[C@@H](C)C(=O)N[C@@H](CCCCNC(=O)COCCOCCNC(=O)COCCOCCNC(=O)CC[C@H](NC(=O)CC[C@H](NC(=O)CCCCCCCCCCCCCCCCC(=O)O)C(=O)O)C(=O)O)C(=O)N[C@@H](CCCNC(=N)N)C(N)=O)C(C)C [Compound 19] (H-[NMeY][Aib]EGTFISDYSIALDR[Aib]HQ[Aib]NFVNWLLAK([AEEA-AEEA-γGlu-γGlu-C18 diacid])R-NH2)	–	–	–	–	–	0.0011	0.0005	≥ 15	≥ 30
CC[C@H](C)[C@H](NC(=O)[C@H](CO)NC(=O)[C@H](Cc1ccc(O)cc1)NC(=O)[C@H](CC(=O)O)NC(=O)[C@H](CO)NC(=O)[C@@H](NC(=O)[C@H](Cc1ccccc1)NC(=O)[C@@H](NC(=O)CNC(=O)[C@H](CCC(=O)O)NC(=O)C(C)(C)NC(=O)[C@H](Cc1ccc(O)cc1)NC)[C@@H](C)O)[C@@H](C)CC)C(=O)N[C@@H](C)C(=O)N[C@@H](CC(C)C)C(=O)N[C@@H](CC(=O)O)C(=O)N[C@@H](CCCNC(=N)N)C(=O)NC(C)(C)C(=O)N[C@@H](C)C(=O)N[C@@H](CCC(N)=O)C(=O)NC(C)(C)C(=O)N[C@@H](CCCCNC(=O)COCCOCCNC(=O)COCCOCCNC(=O)CC[C@H](NC(=O)CC[C@H](NC(=O)CCCCCCCCCCCCCCCCCCC(=O)O)C(=O)O)C(=O)O)C(=O)N[C@@H](Cc1ccccc1)C(=O)N[C@H](C(=O)N[C@@H](CC(N)=O)C(=O)N[C@@H](Cc1c[nH]c2ccccc12)C(=O)N[C@@H](CC(C)C)C(=O)N[C@@H](CC(C)C)C(=O)N[C@@H](C)C(=O)N[C@@H](CCC(N)=O)C(=O)N[C@@H](CCCCN)C(=O)NCC(=O)O)C(C)C [Compound 39] (H-[NMeY][Aib]EGTFISDYSIALDR[Aib]AQ[Aib]K([AEEA-AEEA-γGlu-γGlu-C20 diacid])FVNWLLAQKG-OH)	–	–	–	–	–	0.0112	0.0015	≥ 15	≥ 30
CC[C@H](C)[C@H](NC(=O)[C@H](CO)NC(=O)[C@H](Cc1ccc(O)cc1)NC(=O)[C@H](CC(=O)O)NC(=O)[C@H](CO)NC(=O)[C@@H](NC(=O)[C@H](Cc1ccccc1)NC(=O)[C@@H](NC(=O)CNC(=O)[C@H](CCC(=O)O)NC(=O)C(C)(C)NC(=O)[C@H](Cc1ccc(O)cc1)NC)[C@@H](C)O)[C@@H](C)CC)C(=O)N[C@@H](C)C(=O)N[C@@H](CC(C)C)C(=O)N[C@@H](CC(=O)O)C(=O)N[C@@H](CCCNC(=N)N)C(=O)NC(C)(C)C(=O)N[C@@H](C)C(=O)N[C@@H](CCC(N)=O)C(=O)NC(C)(C)C(=O)N[C@@H](CCCCNC(=O)COCCOCCNC(=O)COCCOCCNC(=O)CC[C@H](NC(=O)CC[C@H](NC(=O)CCCCCCCCCCCCCCCC(=O)O)C(=O)O)C(=O)O)C(=O)N[C@@H](Cc1ccccc1)C(=O)N[C@H](C(=O)N[C@@H](CC(N)=O)C(=O)N[C@@H](Cc1c[nH]c2ccccc12)C(=O)N[C@@H](CC(C)C)C(=O)N[C@@H](CC(C)C)C(=O)N[C@@H](C)C(=O)N[C@@H](CCC(N)=O)C(=O)N[C@@H](CCCNC(=N)N)C(N)=O)C(C)C [Compound 8] (H-[NMeY][Aib]EGTFISDYSIALDR[Aib]AQ[Aib]K([AEEA-AEEA-γGlu-γGlu-C17 diacid])FVNWLLAQR-NH2)	–	optimum free unbound peptide	–	–	–	0.0009	0.0016	–	≥ 15
CC[C@H](C)[C@H](NC(=O)[C@H](CO)NC(=O)[C@H](Cc1ccc(O)cc1)NC(=O)[C@H](CC(=O)O)NC(=O)[C@H](CO)NC(=O)[C@@H](NC(=O)[C@H](Cc1ccccc1)NC(=O)[C@@H](NC(=O)CNC(=O)[C@H](CCC(=O)O)NC(=O)C(C)(C)NC(=O)[C@H](Cc1ccc(O)cc1)NC)[C@@H](C)O)[C@@H](C)CC)C(=O)N[C@@H](C)C(=O)N[C@@H](CC(C)C)C(=O)N[C@@H](CC(=O)O)C(=O)N[C@@H](CCCNC(=N)N)C(=O)NC(C)(C)C(=O)N[C@@H](C)C(=O)N[C@@H](CCC(N)=O)C(=O)NC(C)(C)C(=O)N[C@@H](CCCCNC(=O)COCCOCCNC(=O)COCCOCCNC(=O)CC[C@H](NC(=O)CC[C@H](NC(=O)CCCCCCCCCCCCCCCC(=O)O)C(=O)O)C(=O)O)C(=O)N[C@@H](Cc1ccccc1)C(=O)N[C@H](C(=O)N[C@@H](CC(N)=O)C(=O)N[C@@H](Cc1c[nH]c2ccccc12)C(=O)N[C@@H](CC(C)C)C(=O)N[C@@H](CC(C)C)C(=O)N[C@@H](C)C(=O)N[C@@H](CCC(N)=O)C(=O)N[C@@H](CCCNC(=N)N)C(=O)NCC(=O)O)C(C)C [Compound 36] (H-[NMeY][Aib]EGTFISDYSIALDR[Aib]AQ[Aib]K([AEEA-AEEA-γGlu-γGlu-C17 diacid])FVNWLLAQRG-OH)	–	–	–	–	–	< 0.002	0.0034	≥ 15	≥ 60
